Reference: US8318710B2, “Skin treatments” (priority 2003, dated 2012)
Where two headings read alike, the source gives them in different places.

How the values were obtained:
[1] = system: RAR reporter gene construct (RAREs) with over-expressed RARγ, RXRα and LXRα in Cos-7 cells; details: 24 hours, fold activation over vehicle (ethanol) control
[2] = system: CRABPII protein in primary dermal fibroblasts; assay: Fibroblast expression of CRABPII (Western blot); type: cell-based; details: 24 hours; for Band Intensity (arbitrary units): CRABPII band; for Relative band intensity: relative to vehicle
Protocol: Cells were then plated out in 12 well plates at 38,000 cells per well, and incubated for 24 hours. […] Cells were treated with vehicle (ethanol) or 22R hydroxycholesterol and/or retinoic acid in 1 ml fresh medium (DMEM plus 10% FCS). Treatments were prepared as fresh 1000× stocks and diluted into medium immediately before addition to the cells. […] Cells were washed in 1 ml phosphate buffer saline and trypsinised from the plates. Cells were pelleted at 13000 g for 5 min and washed with 1 ml PBS. Cells were re-pelleted and re-suspended in protein lysis buffer (4M urea, 0.5% SDS, 10 mM EDTA in PBS with protease inhibitor cocktail). Samples were equilibrated for total protein content and the proteins separated by SDS-PAGE and blotted to nitrocellulose. Membranes were probed with antisera against the CRABPII protein and detected by ECL-plus. Intensity of signal was captured using a STORM scanner and quantified using ImageQuant 5.2.

SMILES | Fold activity +/− sd (n = 3) ([1]; 35 μM 22R hydroxycholesterol) | % change from vehicle ([2]; 5 μM 22R-hydroxycholesterol) | Band Intensity (arbitrary units) ([2]; 5 μM 22R-hydroxycholesterol) | Relative band intensity ([2]; 5 μM 22R-hydroxycholesterol) | Fold activity +/− sd (n = 3) ([1]; 0.1 μM all-trans retinoic acid) | % change from vehicle ([2]; 1 nM all-trans retinoic acid) | Band Intensity (arbitrary units) ([2]; 1 nM all-trans retinoic acid) | Relative band intensity ([2]; 1 nM all-trans retinoic acid)
CC(C)CC[C@@H](O)[C@@H](C)[C@H]1CC[C@H]2[C@@H]3CC=C4C[C@@H](O)CC[C@]4(C)[C@H]3CC[C@]12C [22R hydroxycholesterol] | 1.209 +/− 0.030 fold | −0.8% | 167664.2 arbitrary units | 0.992 |  |  |  | 
CC1=C(/C=C/C(C)=C/C=C/C(C)=C/C(=O)O)C(C)(C)CCC1 [all-trans retinoic acid] |  |  |  |  | 1.733 +/− 0.445 fold | +35.3% | 228603.88 arbitrary units | 1.353
